{"source": "patent US9156762B2", "about": "“4,4-bis[(ethenyloxy)methyl]cyclohexene and method for producing same” (Nippon Carbide Industries Co., Inc., priority 2011, dated 2015)", "assay": "skin irritability (stated in words, no method described)", "settings": "the vinyl ether itself", "data": [{"compound": "C=COCC1(COC=C)CC=CCC1", "note": "[4,4-bis[(ethenyloxy)methyl]cyclohexene]", "values": [{"measurement": "skin irritability", "result": "low"}]}]}
